# pIC50: −log10 of the molar value.
# What was measured:
# [1] = target: Prostaglandin G/H synthase 2 (Homo sapiens) (UniProt P35354); test: Inhibition of COX2 (unknown origin) at 0.01 mM using arachidonic acid as substrate preincubated for 15 mins followed by arachidonic acid addition measured after […] by ELISA relative to control
# RAW264.7 [2] = test: Antiinflammatory activity in mouse RAW264.7 cells assessed as inhibition of nitric oxide production; format: functional, cell-based
# [3] = target: T1, Prostaglandin G/H synthase 2 (Homo sapiens) (UniProt P35354); test: Inhibition of COX2 (unknown origin) at […] using arachidonic acid as substrate preincubated for 15 mins followed by arachidonic acid addition measured after 2 mins by ELISA relative to control
# T1 sequence (whole entry): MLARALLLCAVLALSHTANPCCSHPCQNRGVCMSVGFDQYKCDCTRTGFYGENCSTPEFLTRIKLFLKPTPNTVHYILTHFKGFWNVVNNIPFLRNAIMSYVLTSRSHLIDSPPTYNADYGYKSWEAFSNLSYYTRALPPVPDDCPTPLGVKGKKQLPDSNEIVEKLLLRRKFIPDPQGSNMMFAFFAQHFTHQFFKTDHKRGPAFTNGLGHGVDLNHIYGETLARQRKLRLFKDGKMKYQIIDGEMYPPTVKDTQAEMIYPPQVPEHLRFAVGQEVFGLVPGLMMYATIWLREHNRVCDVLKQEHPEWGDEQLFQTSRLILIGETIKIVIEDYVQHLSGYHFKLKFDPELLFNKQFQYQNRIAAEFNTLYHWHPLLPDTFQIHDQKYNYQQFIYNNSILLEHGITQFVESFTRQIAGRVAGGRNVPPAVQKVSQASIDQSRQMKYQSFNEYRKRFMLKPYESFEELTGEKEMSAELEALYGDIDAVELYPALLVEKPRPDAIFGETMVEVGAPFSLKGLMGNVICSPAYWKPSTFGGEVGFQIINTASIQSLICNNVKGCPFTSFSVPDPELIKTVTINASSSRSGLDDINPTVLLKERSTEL
# Interleukin-1 beta = Interleukin-1 beta (Homo sapiens, UniProt P01584); test: Inhibition of IL1-beta (unknown origin)
# Sequence of Interleukin-1 beta (P01584 117-269 limits assumed): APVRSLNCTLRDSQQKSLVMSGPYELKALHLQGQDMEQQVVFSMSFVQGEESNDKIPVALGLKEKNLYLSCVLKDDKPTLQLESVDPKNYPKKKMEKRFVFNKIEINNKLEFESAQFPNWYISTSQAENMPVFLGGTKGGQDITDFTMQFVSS
# [4] = target: Nitric oxide synthase, inducible (Homo sapiens, UniProt P35228); test: Inhibition of iNOS (unknown origin)
# Sequence of Nitric oxide synthase, inducible (P35228 whole entry): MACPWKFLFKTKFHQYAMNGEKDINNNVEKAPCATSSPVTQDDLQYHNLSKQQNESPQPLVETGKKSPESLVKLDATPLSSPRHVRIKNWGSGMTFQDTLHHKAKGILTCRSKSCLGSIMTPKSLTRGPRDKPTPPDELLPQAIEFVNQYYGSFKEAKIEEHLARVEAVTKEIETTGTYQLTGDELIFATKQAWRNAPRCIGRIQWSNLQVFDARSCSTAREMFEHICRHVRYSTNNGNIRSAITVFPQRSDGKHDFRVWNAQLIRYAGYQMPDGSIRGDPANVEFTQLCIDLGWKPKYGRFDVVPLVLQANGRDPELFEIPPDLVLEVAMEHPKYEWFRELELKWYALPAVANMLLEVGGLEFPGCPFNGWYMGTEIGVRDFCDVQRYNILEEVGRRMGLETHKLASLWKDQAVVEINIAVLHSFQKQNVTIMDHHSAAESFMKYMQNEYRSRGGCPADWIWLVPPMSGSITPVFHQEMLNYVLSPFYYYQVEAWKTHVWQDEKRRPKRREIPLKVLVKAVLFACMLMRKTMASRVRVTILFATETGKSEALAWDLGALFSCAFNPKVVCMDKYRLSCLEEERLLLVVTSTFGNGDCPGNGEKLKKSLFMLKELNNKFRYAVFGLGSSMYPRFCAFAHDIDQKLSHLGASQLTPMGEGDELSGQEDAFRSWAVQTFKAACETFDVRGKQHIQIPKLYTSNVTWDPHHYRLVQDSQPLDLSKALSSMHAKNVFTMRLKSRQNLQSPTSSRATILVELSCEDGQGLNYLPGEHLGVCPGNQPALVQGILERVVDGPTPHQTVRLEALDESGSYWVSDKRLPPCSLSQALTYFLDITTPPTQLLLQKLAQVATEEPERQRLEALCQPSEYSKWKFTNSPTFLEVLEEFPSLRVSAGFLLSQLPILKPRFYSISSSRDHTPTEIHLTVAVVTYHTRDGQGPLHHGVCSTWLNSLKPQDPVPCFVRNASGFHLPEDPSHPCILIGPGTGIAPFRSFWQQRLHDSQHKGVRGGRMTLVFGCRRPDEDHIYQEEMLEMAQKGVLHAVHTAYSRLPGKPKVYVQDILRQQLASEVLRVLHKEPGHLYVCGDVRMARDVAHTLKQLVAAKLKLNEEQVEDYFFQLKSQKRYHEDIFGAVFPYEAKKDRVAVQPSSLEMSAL
# [5] = target: T2, Polyunsaturated fatty acid 5-lipoxygenase (Homo sapiens) (UniProt P09917); test: Inhibition of 5-lox (unknown origin) at 20 uM relative to control
# T2 sequence (whole entry): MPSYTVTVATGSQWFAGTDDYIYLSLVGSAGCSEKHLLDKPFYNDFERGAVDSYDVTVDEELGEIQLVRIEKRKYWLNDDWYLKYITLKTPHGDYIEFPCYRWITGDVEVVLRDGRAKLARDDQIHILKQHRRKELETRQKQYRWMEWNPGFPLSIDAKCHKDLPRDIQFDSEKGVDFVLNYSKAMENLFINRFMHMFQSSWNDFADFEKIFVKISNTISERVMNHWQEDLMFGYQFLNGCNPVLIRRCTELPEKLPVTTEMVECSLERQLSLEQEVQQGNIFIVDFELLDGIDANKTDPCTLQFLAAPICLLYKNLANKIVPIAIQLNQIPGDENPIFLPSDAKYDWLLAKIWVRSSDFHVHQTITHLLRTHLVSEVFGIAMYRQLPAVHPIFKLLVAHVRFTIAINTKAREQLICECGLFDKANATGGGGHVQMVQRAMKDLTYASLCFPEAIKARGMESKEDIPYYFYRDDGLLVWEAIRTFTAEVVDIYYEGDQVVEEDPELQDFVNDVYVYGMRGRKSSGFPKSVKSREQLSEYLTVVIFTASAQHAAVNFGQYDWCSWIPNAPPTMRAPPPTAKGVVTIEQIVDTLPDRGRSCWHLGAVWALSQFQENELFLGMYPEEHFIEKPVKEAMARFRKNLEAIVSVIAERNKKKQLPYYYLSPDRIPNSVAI
# THP-1 [6] = test: Antiinflammatory activity against human THP1 cells assessed as inhibition of LPS induced TNF-alpha at 40 uM preincubated for 30 mins followed by LPS stimulation measured after 24 hrs by ELISA relative to control; format: functional
# [7] = Inhibition of ovine 5-lox by EIA; parameters: species or system Ovis aries
# [8] = target: T3, Prostaglandin G/H synthase 2 (Ovis aries, UniProt P79208); test: Inhibition of ovine COX2 by EIA
# T3 sequence (P79208 whole entry): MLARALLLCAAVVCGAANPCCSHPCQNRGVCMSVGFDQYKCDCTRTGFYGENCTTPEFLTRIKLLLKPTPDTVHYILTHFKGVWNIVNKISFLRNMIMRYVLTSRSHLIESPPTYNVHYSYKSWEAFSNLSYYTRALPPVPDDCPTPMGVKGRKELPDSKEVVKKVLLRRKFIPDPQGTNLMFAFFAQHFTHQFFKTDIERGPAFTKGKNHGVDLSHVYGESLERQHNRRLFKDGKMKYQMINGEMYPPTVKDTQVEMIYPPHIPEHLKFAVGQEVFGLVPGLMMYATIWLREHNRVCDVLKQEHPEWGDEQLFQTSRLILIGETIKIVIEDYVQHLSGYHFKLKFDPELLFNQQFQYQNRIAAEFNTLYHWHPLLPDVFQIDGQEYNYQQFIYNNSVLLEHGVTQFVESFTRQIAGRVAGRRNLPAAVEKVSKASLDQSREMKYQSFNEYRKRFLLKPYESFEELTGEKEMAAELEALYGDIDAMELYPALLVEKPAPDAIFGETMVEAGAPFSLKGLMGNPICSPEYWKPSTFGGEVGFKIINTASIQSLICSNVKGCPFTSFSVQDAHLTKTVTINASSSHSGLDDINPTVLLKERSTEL
# RAW264.7 [9] = test: Antiinflammatory activity against mouse RAW264.7 cells assessed as inhibition of LPS induced iNOS at 30 uM preincubated for 1 hr followed by LPS stimulation measured after 18 hrs relative to control; format: functional
# RAW264.7 [10] = test: Antiinflammatory activity against mouse RAW264.7 cells assessed as inhibition of LPS induced COX2 at 30 uM preincubated for 1 hr followed by LPS stimulation measured after 18 hrs relative to control; format: functional
# THP-1 [11] = test: Antiinflammatory activity against human THP1 cells assessed as inhibition of LPS induced TNF-alpha at 100 uM preincubated for 30 mins followed by LPS stimulation measured after 24 hrs by ELISA relative to control; format: functional
# RAW264.7 [12] = test: Antiinflammatory activity in mouse RAW264.7 cells assessed as inhibition of LPS-induced nitric oxide production at 20 uM preincubated for 2 hrs followed by LPS stimulation measured after 24 hrs by Griess reagent based assay relative to control; format: functional
# RAW264.7 [13] = test: Antiinflammatory activity in mouse RAW264.7 cells assessed as inhibition of LPS-induced nitric oxide production at 50 uM preincubated for 2 hrs followed by LPS stimulation measured after 24 hrs by Griess reagent based assay relative to control; format: functional
# RAW264.7 [14] = test: Antiinflammatory activity in mouse RAW264.7 cells assessed as inhibition of LPS-induced nitric oxide production at 10 uM preincubated for 2 hrs followed by LPS stimulation measured after 24 hrs by Griess reagent based assay relative to control; format: functional
# [15] = Inhibition of soybean 15-LOX using linoleic acid as substrate preincubated for 5 mins followed by substrate addition and measured after 20 mins by spectrophotometric analysis; parameters: species or system Glycine max
# [16] = target: T3, Prostaglandin G/H synthase 2; test: Inhibition of ovine COX2 using arachidonic acid as substrate by enzyme immunoassay
# RAW264.7 [17] = test: Antiinflammatory activity in mouse RAW264.7 cells assessed as inhibition of LPS-induced nitric oxide production; format: functional, cell-based
# BV-2 = test: Antiinflammatory activity in mouse BV2 cells assessed as inhibition of LPS-induced nitric oxide production; format: functional, cell-based
# [18] = target: T1, Prostaglandin G/H synthase 2 (Homo sapiens); test: Inhibition of COX2 (unknown origin) at 20 uM relative to control
# RAW264.7 [19] = test: Antiinflammatory activity in mouse RAW264.7 cells assessed as inhibition of LPS-induced nitric oxide production at […] after 24 hrs by Griess reagent based assay relative to control; format: functional; parameters: dose or concentration left out as unconfirmed; conditions: RAW264.7, 24 h
# [20] = target: T4, Prostaglandin G/H synthase 1 (Ovis aries, UniProt P05979); test: Inhibition of ovine COX1
# T4 sequence (P05979 whole entry): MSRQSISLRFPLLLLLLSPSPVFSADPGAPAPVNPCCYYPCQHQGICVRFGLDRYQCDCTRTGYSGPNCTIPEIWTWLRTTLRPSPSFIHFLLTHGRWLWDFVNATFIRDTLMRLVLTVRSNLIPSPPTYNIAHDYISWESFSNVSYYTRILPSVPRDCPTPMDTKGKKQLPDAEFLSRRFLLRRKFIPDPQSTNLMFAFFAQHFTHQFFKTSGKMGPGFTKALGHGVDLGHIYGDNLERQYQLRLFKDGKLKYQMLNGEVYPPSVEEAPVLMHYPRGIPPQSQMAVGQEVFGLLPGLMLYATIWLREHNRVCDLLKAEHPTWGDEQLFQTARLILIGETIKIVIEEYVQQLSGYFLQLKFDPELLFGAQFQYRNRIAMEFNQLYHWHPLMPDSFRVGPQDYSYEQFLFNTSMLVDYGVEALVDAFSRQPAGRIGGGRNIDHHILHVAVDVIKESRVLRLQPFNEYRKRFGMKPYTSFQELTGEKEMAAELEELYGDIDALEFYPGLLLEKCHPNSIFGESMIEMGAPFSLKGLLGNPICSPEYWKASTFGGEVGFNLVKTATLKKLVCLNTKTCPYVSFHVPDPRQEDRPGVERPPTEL
# [21] = target: T3, Prostaglandin G/H synthase 2; test: Inhibition of ovine COX2
# RAW264.7 [22] = test: Antiinflammatory activity in mouse RAW264.7 cells assessed as inhibition of LPS-induced nitric oxide production after 24 hrs; format: functional, cell-based; conditions: RAW264.7, 24 h
structure (smiles),measurement,setting,value
CC1(C)NC(CCc2ccc(O)cc2)CC(=O)C1Cc1ccc(O)cc1 (centres undefined),inhibition,[1],83.3%
COc1cc2c(cc1C)C1=C(C)C(=O)OC1C(O)C2C (centres undefined),pIC50,RAW264.7 [2],4.28
O=C(/C=C/CCc1ccc(O)cc1)CCc1ccc(O)cc1,inhibition,[3],98.4%
C/C=C(\C)C(=O)O[C@H]1[C@H](OC(C)=O)[C@@]23C[C@@]1(O)O[C@H]1C[C@]4(C)C(=CC[C@H]4c4ccoc4)[C@](C)(C(=O)C[C@H]2C(C)C)C13 (some centres undefined),pIC50,Interleukin-1 beta,5.11
same,pIC50,[4],5.11
COc1cc(C2Oc3cc(/C=C/COC(=O)CC(C)C)cc(OC)c3OC2COC(=O)CC(C)C)cc(OC)c1O (centres undefined),inhibition,[5],16.1%
O=C(OC1Cc2c(O)cc(O)cc2OC1c1cc(O)c(O)c(O)c1)c1cc(O)c(O)c(O)c1 (centres undefined),inhibition at 40 µM,THP-1 [6],39.1%
CC(C)=CCC/C(C)=C/Cc1c(O)cc(O)c(C(=O)C(C)C)c1O,pIC50,[7],5.66
same,pIC50,[8],4.52
CC1(C)CC[C@]2(C(=O)O[C@@H]3O[C@H](CO)[C@@H](O)[C@H](O)[C@H]3O)CC[C@]3(C)C(=CC[C@@H]4[C@@]5(C)CC[C@H](O[C@@H]6OC[C@@H](O)[C@H](O)[C@H]6O[C@@H]6O[C@H](CO)[C@@H](O)[C@H](O)[C@H]6O)C(C)(C)[C@@H]5CC[C@]43C)[C@@H]2C1,inhibition at 30 µM,RAW264.7 [9],88%
same,inhibition at 30 µM,RAW264.7 [10],54.6%
C[C@@H]1O[C@@H](Oc2c(-c3cc(O)c(O)c(O)c3)oc3cc(O)cc(O)c3c2=O)[C@H](O)[C@H](O)[C@H]1O,inhibition at 100 µM,THP-1 [11],19.5%
COc1c(O)cc2c(=O)oc3c(OC)c(O[C@@H]4O[C@H](CO)[C@@H](O)[C@H](O)[C@H]4O)cc4c(=O)oc1c2c34,inhibition at 40 µM,THP-1 [6],47.8%
COc1cc(C2OCC3C(c4cc(OC)c(O)c(OC)c4)OCC23)cc(OC)c1O (centres undefined),inhibition,[5],28.5%
COc1cc(/C=C/c2ccccc2)c(C(=O)O)c(O)c1CC=C(C)C,inhibition at 20 µM,RAW264.7 [12],30.6%
same,inhibition at 50 µM,RAW264.7 [13],40.9%
same,inhibition at 10 µM,RAW264.7 [14],21.2%
C=C(C)[C@H](CC=C(C)C)C[C@]12C[C@H](CC=C(C)C)C(C)(C)[C@](CC=C(C)C)(C(=O)C(C(=O)c3ccc(O)c(O)c3)=C1O)C2=O,IC50,[15],0.04305 µg/mL
CCOC(=O)[C@H](CO)NC(=O)c1cccc(O)c1O,pIC50,[16],5.55
C=C1[C@@H]([C@@]2(C)[C@@H](O)CC(=O)C(C)(C)[C@@H]2[C@@H](O)C(=O)OC)CC[C@@]2(C)[C@H](C3=C[C@@H](O)CC3=O)CC(=O)C[C@]12O,pIC50,RAW264.7 [17],5.30
same,pIC50,BV-2,5.30
CCCCCC(=O)/C=C/C=C\CCCCCCCC(=O)O,inhibition,[18],16.6%
O=c1c2cc(O)c(O)cc2oc2cc(O)cc(O)c12,IC50,[15],0.04461 µg/mL
same,inhibition,RAW264.7 [19],70.8%
C=C1CC[C@]2(C(=O)O[C@@H]3O[C@H](CO)[C@@H](O)[C@H](O)[C@H]3O)CC[C@]3(C)C(=CC[C@@H]4[C@@]5(C)CC[C@H](O[C@@H]6OC[C@@H](O)[C@H](O)[C@H]6O[C@@H]6O[C@H](CO)[C@@H](O)[C@H](O)[C@H]6O)C(C)(C)[C@@H]5CC[C@]43C)[C@@H]2[C@H]1C,inhibition at 30 µM,RAW264.7 [9],75.9%
same,inhibition at 30 µM,RAW264.7 [10],40.9%
CC(C)=CCCC(C(=O)O)C1CNC(=N)N1 (centres undefined),pIC50,[20],3.52
same,pIC50,[21],3.08
C=CC(C)(CCC=C(C)C)c1c(O)cc2c(c1O)C(=O)C[C@@H](c1ccc(O)c(O)c1)O2 (some centres undefined),pIC50,RAW264.7 [22],5.48

# Source: ChEMBL document CHEMBL4406802, “Human disorders associated with inflammation and the evolving role of natural products to overcome” (Eur J Med Chem, 2019)
